Results published in patent US20260217768A1, “NANOPARTICLE-NHE3 PEPTIDE TO TREAT DIARRHEA” (The Johns Hopkins University, priority 2023, published 2026).

Key:
mouse ileal loops = assay: Basal fluid absorption in closed mouse ileal loops, nanoparticle-conjugated peptides, with or without Tenapanor; type: in vivo; settings: for residual fluid / fluid absorption in closed ileal loops compared to CP2: nanoparticle conjugated peptide 400 nM for 4 h, then 150-μL PBS for 30 min
Protocol: All in vivo studies were performed on 8-12 week old C57B1/6N mice anesthetized with isofluorane and kept at 37° C. via heating lamps and rectal thermal probes.
Effect on basal fluid transport and effect of Tenapanor. Mice operated on as above had 3-4 cm closed ileal loops inoculated with 150-μL PBS containing 400-nM nanoparticle-CP-2 or -N3SP-1Δ7. After 4 h, the loops were drained and inoculated with 150-μL PBS. 30 min later, the animals were sacrificed and loop weight/length determined. In parallel studies, Tenapanor (10 μM) was present in both incubation periods. Similar to the BODIPY-conjugated peptide studies, the effects of nanoparticle-CP-2 or N3SP-1Δ7 (4 μM) compared to PBS alone were determined on net fluid secretion produced by inoculation of 0.1-μg CTx. The nanoparticle-peptides plus 0.1-μg CTx in 150-μL PBS were inoculated in 3-4 cm long closed ileal loops. Additional controls included loops exposed only to 150-μL PBS and those only exposed to the CTx/PBS. 4 h later, the animals were sacrificed and loop weight/cm length was determined.

adenylate cyclase-cAMP = assay: cAMP assay in human enteroid monolayers exposed to FSK; type: cell-based; settings: nanoparticles with 250-nM peptide, FSK (10 μM) 45 min, CP-2 vs N3SP-1Δ7
Protocol: Human jejunal enteroid monolayers on Transwell inserts (Corning Cat #: 3470) were differentiated for 5 days and then in serum-free media were exposed apically to nanoparticles containing either 250-nM CP-2 or N3SP-1Δ7. The peptide and polymer in PBS were prepared just before use, allowed to combine for 10 min before being added to the apical surface of enteroid monolayers at room temperature. Monolayers were incubated for 4 hours at 37° C., 5% CO2 incubator before the nanoparticles were removed, then monolayers were washed 3 times with cold PBS and changed to differentiation media and moved to a 37° C. incubator. Differentiation media was removed 24 hours later and washed twice with CMGF-media (Advanced DMEM/F12 with 10-mM Hepes, 10-mM GlutaMax, and 1000 Units/mL Penn/Strep). Next, 100 μL of CMGF-media containing 10-mM Theophylline, 50-μM Cilostazol and 50-μM Rolipram was added to the apical and basolateral surfaces followed by exposure to FSK (10 μM) at 37° C., 5% CO2, for 45 min before apical and basolateral media were collected and cells were lysed in 200-μL 0.1 M HCl for cAMP analysis. CAMP in apical, basolateral, and cells was determined using nonradioactive, CAMP-ELISA kits from ENZO Life Sciences (Loerrach, German), using the acetylation protocol in which the yellow-colored product is inversely proportional to the amount of CAMP present in the sample.

For “N3SP-1 lacking first seven N-terminal amino acids: RPSTVEASVSYLLRESASAVCLDMQSLEQRR [Peptide N3SP-1Δ7]”, the “residual fluid / fluid absorption in closed ileal loops compared to CP2” value (mouse ileal loops) was “increased fluid absorption”, the “residual fluid / fluid absorption in closed ileal loops compared to CP2” value (mouse ileal loops; listed as N3SP-147) was “significantly less amount of residual fluid” and the “residual fluid in presence of Tenapanor, CP2 vs N3SP-1Δ7” value (mouse ileal loops; nanoparticle conjugated peptide 400 nM, Tenapanor (10 μM) in both incubation periods) was “no difference in residual fluid”. For the same substance, the “FSK-increased intracellular cAMP” value (adenylate cyclase-cAMP) was “similar”.
